Test results reported in ChEMBL document CHEMBL5506059, “Cyanomethylquinolones as a New Class of Potential Multitargeting Broad-Spectrum Antibacterial Agents” (J Med Chem, 2024).
Converted amounts (≈) assume the structure as drawn.

Tests used:
Type in all cases: functional
Staphylococcus aureus [1] = assay: Antibacterial activity against Staphylococcus aureus ATCC 29213 assessed as inhibition of bacterial growth incubated for 24 hrs
Staphylococcus aureus [2] = assay: Antibacterial activity against Staphylococcus aureus clinical isolate assessed as inhibition of bacterial growth incubated for 24 hrs
Enterococcus faecalis = assay: Antibacterial activity against Enterococcus faecalis clinical isolate assessed as inhibition of bacterial growth incubated for 24 hrs
Pseudomonas aeruginosa [3] = assay: Antibacterial activity against Pseudomonas aeruginosa clinical isolate assessed as inhibition of bacterial growth incubated for 24 hrs
Pseudomonas aeruginosa [4] = assay: Antibacterial activity against Pseudomonas aeruginosa ATCC 27853 assessed as inhibition of bacterial growth incubated for 24 hrs
Staphylococcus aureus [5] = assay: Antibacterial activity against Staphylococcus aureus ATCC 25923 assessed as inhibition of bacterial growth incubated for 24 hrs
Escherichia coli [6] = assay: Antibacterial activity against Escherichia coli ATCC 25922 assessed as inhibition of bacterial growth incubated for 24 hrs
Acinetobacter baumannii = assay: Antibacterial activity against Acinetobacter baumannii clinical isolate assessed as inhibition of bacterial growth incubated for 24 hrs
Escherichia coli [7] = assay: Antibacterial activity against Escherichia coli clinical isolate assessed as inhibition of bacterial growth incubated for 24 hrs
Staphylococcus aureus [8] = assay: Antibacterial activity against methicillin resistant Staphylococcus aureus clinical isolate assessed as inhibition of bacterial growth incubated for 24 hrs
Klebsiella pneumoniae = assay: Antibacterial activity against Klebsiella pneumoniae clinical isolate assessed as inhibition of bacterial growth incubated for 24 hrs

N#CCc1cc2c(cc1F)c(=O)c(C(=O)O)cn2Cc1c(F)cccc1F
MIC (Staphylococcus aureus [1]): 4 µg/mL (≈ 10.7 µM) | MIC (Staphylococcus aureus [2]): 4 µg/mL (≈ 10.7 µM) | MIC (Enterococcus faecalis): 2 µg/mL (≈ 5.37 µM) | MIC (Pseudomonas aeruginosa [3]): 4 µg/mL (≈ 10.7 µM) | MIC (Pseudomonas aeruginosa [4]): 4 µg/mL (≈ 10.7 µM) | MIC (Staphylococcus aureus [5]): 4 µg/mL (≈ 10.7 µM) | MIC (Escherichia coli [6]): 2 µg/mL (≈ 5.37 µM) | MIC (Acinetobacter baumannii): 8 µg/mL (≈ 21.5 µM) | MIC (Escherichia coli [7]): 32 µg/mL (≈ 86 µM) | MIC (Staphylococcus aureus [8]): 4 µg/mL (≈ 10.7 µM) | MIC (Klebsiella pneumoniae): 8 µg/mL (≈ 21.5 µM)

N#CCc1cc2c(cc1F)c(=O)c(C(=O)O)cn2Cc1ccccn1
MIC (Staphylococcus aureus [1]): 8 µg/mL (≈ 23.7 µM) | MIC (Staphylococcus aureus [2]): 256 µg/mL (≈ 759 µM) | MIC (Enterococcus faecalis): 8 µg/mL (≈ 23.7 µM) | MIC (Pseudomonas aeruginosa [3]): 0.5 µg/mL (≈ 1.48 µM) | MIC (Pseudomonas aeruginosa [4]): 16 µg/mL (≈ 47.4 µM) | MIC (Staphylococcus aureus [5]): 1 µg/mL (≈ 2.96 µM) | MIC (Escherichia coli [6]): 0.25 µg/mL (≈ 0.741 µM) | MIC (Acinetobacter baumannii): 2 µg/mL (≈ 5.93 µM) | MIC (Escherichia coli [7]): 8 µg/mL (≈ 23.7 µM) | MIC (Staphylococcus aureus [8]): 32 µg/mL (≈ 94.9 µM) | MIC (Klebsiella pneumoniae): 4 µg/mL (≈ 11.9 µM)

N#CCc1cc2c(cc1F)c(=O)c(C(=O)O)cn2CC(=O)N1CCCCC1
MIC (Staphylococcus aureus [1]): 4 µg/mL (≈ 10.8 µM) | MIC (Staphylococcus aureus [2]): 128 µg/mL (≈ 345 µM) | MIC (Enterococcus faecalis): 64 µg/mL (≈ 172 µM) | MIC (Pseudomonas aeruginosa [3]): 1 µg/mL (≈ 2.69 µM) | MIC (Pseudomonas aeruginosa [4]): 4 µg/mL (≈ 10.8 µM) | MIC (Staphylococcus aureus [5]): 16 µg/mL (≈ 43.1 µM) | MIC (Escherichia coli [6]): 4 µg/mL (≈ 10.8 µM) | MIC (Acinetobacter baumannii): 64 µg/mL (≈ 172 µM) | MIC (Escherichia coli [7]): 16 µg/mL (≈ 43.1 µM) | MIC (Staphylococcus aureus [8]): 4 µg/mL (≈ 10.8 µM) | MIC (Klebsiella pneumoniae): 16 µg/mL (≈ 43.1 µM)

N#CCc1cc2c(cc1F)c(=O)c(C(=O)O)cn2Cc1cccc(Cl)c1
MIC (Staphylococcus aureus [1]): 0.5 µg/mL (≈ 1.35 µM) | MIC (Staphylococcus aureus [2]): 256 µg/mL (≈ 690 µM) | MIC (Enterococcus faecalis): 256 µg/mL (≈ 690 µM) | MIC (Pseudomonas aeruginosa [3]): 0.25 µg/mL (≈ 0.674 µM) | MIC (Pseudomonas aeruginosa [4]): 0.5 µg/mL (≈ 1.35 µM) | MIC (Staphylococcus aureus [5]): 0.5 µg/mL (≈ 1.35 µM) | MIC (Escherichia coli [6]): 0.5 µg/mL (≈ 1.35 µM) | MIC (Acinetobacter baumannii): 16 µg/mL (≈ 43.2 µM) | MIC (Escherichia coli [7]): 2 µg/mL (≈ 5.39 µM) | MIC (Staphylococcus aureus [8]): 256 µg/mL (≈ 690 µM) | MIC (Klebsiella pneumoniae): 1 µg/mL (≈ 2.7 µM)

N#CCc1cc2c(cc1F)c(=O)c(C(=O)O)cn2Cc1ccc(Cl)cc1
MIC (Staphylococcus aureus [1]): 4 µg/mL (≈ 10.8 µM) | MIC (Staphylococcus aureus [2]): 256 µg/mL (≈ 690 µM) | MIC (Enterococcus faecalis): 256 µg/mL (≈ 690 µM) | MIC (Pseudomonas aeruginosa [3]): 0.5 µg/mL (≈ 1.35 µM) | MIC (Pseudomonas aeruginosa [4]): 256 µg/mL (≈ 690 µM) | MIC (Staphylococcus aureus [5]): 0.5 µg/mL (≈ 1.35 µM) | MIC (Escherichia coli [6]): 256 µg/mL (≈ 690 µM) | MIC (Acinetobacter baumannii): 16 µg/mL (≈ 43.2 µM) | MIC (Escherichia coli [7]): 256 µg/mL (≈ 690 µM) | MIC (Staphylococcus aureus [8]): 256 µg/mL (≈ 690 µM) | MIC (Klebsiella pneumoniae): 256 µg/mL (≈ 690 µM)

N#CCc1cc2c(cc1F)c(=O)c(C(=O)O)cn2Cc1cnc(Cl)s1
MIC (Staphylococcus aureus [1]): 4 µg/mL (≈ 10.6 µM) | MIC (Staphylococcus aureus [2]): 8 µg/mL (≈ 21.2 µM) | MIC (Enterococcus faecalis): 16 µg/mL (≈ 42.4 µM) | MIC (Pseudomonas aeruginosa [3]): 0.5 µg/mL (≈ 1.32 µM) | MIC (Pseudomonas aeruginosa [4]): 2 µg/mL (≈ 5.29 µM) | MIC (Staphylococcus aureus [5]): 8 µg/mL (≈ 21.2 µM) | MIC (Escherichia coli [6]): 1 µg/mL (≈ 2.65 µM) | MIC (Acinetobacter baumannii): 16 µg/mL (≈ 42.4 µM) | MIC (Escherichia coli [7]): 8 µg/mL (≈ 21.2 µM) | MIC (Staphylococcus aureus [8]): 1 µg/mL (≈ 2.65 µM) | MIC (Klebsiella pneumoniae): 8 µg/mL (≈ 21.2 µM)

CCn1cc(C(=O)O)c(=O)c2cc(F)c(CC#N)c(F)c21
MIC (Staphylococcus aureus [1]): 1 µg/mL (≈ 3.42 µM) | MIC (Staphylococcus aureus [2]): 0.25 µg/mL (≈ 0.855 µM) | MIC (Enterococcus faecalis): 8 µg/mL (≈ 27.4 µM) | MIC (Pseudomonas aeruginosa [3]): 1 µg/mL (≈ 3.42 µM) | MIC (Pseudomonas aeruginosa [4]): 4 µg/mL (≈ 13.7 µM) | MIC (Staphylococcus aureus [5]): 16 µg/mL (≈ 54.7 µM) | MIC (Escherichia coli [6]): 0.5 µg/mL (≈ 1.71 µM) | MIC (Acinetobacter baumannii): 0.5 µg/mL (≈ 1.71 µM) | MIC (Escherichia coli [7]): 4 µg/mL (≈ 13.7 µM) | MIC (Staphylococcus aureus [8]): 1 µg/mL (≈ 3.42 µM) | MIC (Klebsiella pneumoniae): 16 µg/mL (≈ 54.7 µM)
